Data reported in ChEMBL document CHEMBL4825673, “Total and Semisyntheses of Polymyxin Analogues with 2-Thr or 10-Thr Modifications to Decipher the Structure-Activity Relationship and Improve the Antibacterial Activity” (J Med Chem, 2021).
In brackets after ≈: the same amount, converted by molar mass.

Experiments:
Acinetobacter baumannii = test: Antibacterial activity against Acinetobacter baumannii assessed as inhibition of bacterial growth incubated for 24 hrs by broth microdilution method; type: functional; settings: read-out: MIC100
HK-2 = test: Cytotoxicity against human HK-2 cells assessed as cell viability incubated for 72 hrs by CCK-8 assay; type: cell-based; settings: hk-2, 72 h
Moraxella catarrhalis = test: Antibacterial activity against Moraxella catarrhalis assessed as inhibition of bacterial growth incubated for 24 hrs by broth microdilution method; type: functional; settings: read-out: MIC100
Pseudomonas aeruginosa [1] = test: Antibacterial activity against Pseudomonas aeruginosa assessed as inhibition of bacterial growth incubated for 24 hrs by broth microdilution method; type: functional; settings: read-out: MIC100
Escherichia coli = test: Antibacterial activity against Escherichia coli assessed as inhibition of bacterial growth incubated for 24 hrs by broth microdilution method; type: functional; settings: read-out: MIC100
Pseudomonas aeruginosa [2] = test: Antibacterial activity against Pseudomonas aeruginosa PAO1 assessed as inhibition of bacterial growth incubated for 24 hrs by broth microdilution method; type: functional; settings: read-out: MIC100
Klebsiella pneumoniae = test: Antibacterial activity against Klebsiella pneumoniae assessed as inhibition of bacterial growth incubated for 24 hrs by broth microdilution method; type: functional; settings: read-out: MIC100

SMILES | MIC (Acinetobacter baumannii) | Activity (HK-2) | MIC (Moraxella catarrhalis) | MIC (Pseudomonas aeruginosa [1]) | MIC (Escherichia coli) | MIC (Pseudomonas aeruginosa [2]) | MIC (Klebsiella pneumoniae)
CCCCCCCC(=O)N[C@@H](CCN)C(=O)N[C@H](C(=O)N[C@@H](CCN)C(=O)N[C@H]1CCNC(=O)[C@H](Cc2ccccc2)NC(=O)[C@H](CCN)NC(=O)[C@H](CCN)NC(=O)[C@H](CC(C)C)NC(=O)[C@@H](Cc2ccccc2)NC(=O)[C@H](CCN)NC1=O)[C@@H](C)O | 0.06 µg/mL (≈ 0.0486 µM) | Non-Toxic | 2 µg/mL (≈ 1.62 µM) | 0.25 µg/mL (≈ 0.202 µM) | 2 µg/mL (≈ 1.62 µM) | 4 µg/mL (≈ 3.24 µM) | 2 µg/mL (≈ 1.62 µM)
CCCCCCCC(=O)N[C@@H](CCN)C(=O)N[C@H](C(=O)N[C@@H](CCN)C(=O)N[C@H]1CCNC(=O)[C@H](CCC(N)=O)NC(=O)[C@H](CCN)NC(=O)[C@H](CCN)NC(=O)[C@H](CC(C)C)NC(=O)[C@@H](Cc2ccccc2)NC(=O)[C@H](CCN)NC1=O)[C@@H](C)O |  | Non-Toxic |  |  |  | 32 µg/mL (≈ 26.3 µM) | 
CC[C@H](C)CCCCC(=O)N[C@@H](CCN)C(=O)N[C@H](C(=O)N[C@@H](CCN)C(=O)N[C@H]1CCNC(=O)[C@H]([C@@H](C)O)NC(=O)[C@H](CCN)NC(=O)[C@H](CCN)NC(=O)[C@H](CC(C)C)NC(=O)[C@@H](Cc2ccccc2)NC(=O)[C@H](CCN)NC1=O)[C@@H](C)OC(=O)[C@@H](N)CCC(N)=O |  | Non-Toxic |  |  |  |  | 
CC[C@H](C)CCCCC(=O)N[C@@H](CCN)C(=O)N[C@H](C(=O)N[C@@H](CCN)C(=O)N[C@H]1CCNC(=O)[C@H]([C@@H](C)O)NC(=O)[C@H](CCN)NC(=O)[C@H](CCN)NC(=O)[C@H](CC(C)C)NC(=O)[C@@H](Cc2ccccc2)NC(=O)[C@H](CCN)NC1=O)[C@@H](C)OC(=O)[C@@H](N)CCC(=O)O |  | Non-Toxic |  |  |  |  | 
CC[C@H](C)CCCCC(=O)N[C@@H](CCN)C(=O)N[C@H](C(=O)N[C@@H](CCN)C(=O)N[C@H]1CCNC(=O)[C@H]([C@@H](C)OC(=O)[C@@H](N)CCCCN)NC(=O)[C@H](CCN)NC(=O)[C@H](CCN)NC(=O)[C@H](CC(C)C)NC(=O)[C@@H](Cc2ccccc2)NC(=O)[C@H](CCN)NC1=O)[C@@H](C)OC(=O)[C@@H](N)CCCCN |  | Non-Toxic |  |  |  | 4 µg/mL (≈ 2.74 µM) | 
CC[C@H](C)CCCCC(=O)N[C@@H](CCN)C(=O)N[C@H](C(=O)N[C@@H](CCN)C(=O)N[C@H]1CCNC(=O)[C@H]([C@@H](C)OC(=O)[C@@H](N)CC(=O)O)NC(=O)[C@H](CCN)NC(=O)[C@H](CCN)NC(=O)[C@H](CC(C)C)NC(=O)[C@@H](Cc2ccccc2)NC(=O)[C@H](CCN)NC1=O)[C@@H](C)OC(=O)[C@@H](N)CC(=O)O |  | Non-Toxic |  |  |  | 4 µg/mL (≈ 2.79 µM) | 
CC(C)CCCCC(=O)N[C@@H](CCN)C(=O)N[C@@H](Cc1ccccc1)C(=O)N[C@@H](CCN)C(=O)N[C@H]1CCNC(=O)[C@H]([C@@H](C)O)NC(=O)[C@H](CCN)NC(=O)[C@H](CCN)NC(=O)[C@H](CC(C)C)NC(=O)[C@@H](Cc2ccccc2)NC(=O)[C@H](CCN)NC1=O | 16 µg/mL (≈ 12.9 µM) |  | 4 µg/mL (≈ 3.24 µM) | 0.5 µg/mL (≈ 0.405 µM) | 4 µg/mL (≈ 3.24 µM) | 4 µg/mL (≈ 3.24 µM) | > 32 µg/mL
CC[C@H](C)CCCCC(=O)N[C@@H](CCN)C(=O)N[C@H](C(=O)N[C@@H](CCN)C(=O)N[C@H]1CCNC(=O)[C@H]([C@@H](C)O)NC(=O)[C@H](CCN)NC(=O)[C@H](CCN)NC(=O)[C@H](CC(C)C)NC(=O)[C@@H](Cc2ccccc2)NC(=O)[C@H](CCN)NC1=O)[C@@H](C)OC(=O)[C@@H](N)CC(=O)O | 0.125 µg/mL (≈ 0.0948 µM) | Non-Toxic | > 32 µg/mL | 0.25 µg/mL (≈ 0.19 µM) | 0.25 µg/mL (≈ 0.19 µM) | 2 µg/mL (≈ 1.52 µM) | 0.5 µg/mL (≈ 0.379 µM)
CC(C)CCCCC(=O)N[C@@H](CCN)C(=O)N[C@@H](CC(C)C)C(=O)N[C@@H](CCN)C(=O)N[C@H]1CCNC(=O)[C@H]([C@@H](C)O)NC(=O)[C@H](CCN)NC(=O)[C@H](CCN)NC(=O)[C@H](CC(C)C)NC(=O)[C@@H](Cc2ccccc2)NC(=O)[C@H](CCN)NC1=O | 2 µg/mL (≈ 1.66 µM) |  | 8 µg/mL (≈ 6.66 µM) | 0.25 µg/mL (≈ 0.208 µM) | 1 µg/mL (≈ 0.832 µM) | 2 µg/mL (≈ 1.66 µM) | 1 µg/mL (≈ 0.832 µM)
CC(C)CCCCC(=O)N[C@@H](CCN)C(=O)N[C@H](C(=O)N[C@@H](CCN)C(=O)N[C@H]1CCNC(=O)[C@H]([C@@H](C)O)NC(=O)[C@H](CCN)NC(=O)[C@H](CCN)NC(=O)[C@H](CC(C)C)NC(=O)[C@@H](Cc2ccccc2)NC(=O)[C@H](CCN)NC1=O)[C@@H](C)OC(=O)[C@@H](N)Cc1c[nH]c2ccccc12 | 0.06 µg/mL (≈ 0.0436 µM) |  | > 32 µg/mL | 0.125 µg/mL (≈ 0.0909 µM) | 0.25 µg/mL (≈ 0.182 µM) | 2 µg/mL (≈ 1.45 µM) | 2 µg/mL (≈ 1.45 µM)
